The source of these data is ChEMBL document CHEMBL4699479, “Structure-aided optimization of 3-O-β-chacotriosyl epiursolic acid derivatives as novel H5N1 virus entry inhibitors” (Bioorg Med Chem Lett, 2020).

Active and inactive are the calls of the source. The rule behind the calls is not given here.

One series can be described thus: in vitro. The conditions noted are these: human, A549 cells.
Series [1] deals with Influenza A virus. The series is classed as functional, organism-based. The conditions noted are these: A/Duck/Guangdong/212/2004(H5N1), A549.
Series [2] is described as follows: Cytotoxicity against human A549 cells assessed as reduction in cell viability by MTT assay. The series is classed as cell-based.
Another series has as its system H5N1 subtype. Kind of series: Antiviral activity against Influenza A virus (A/Thailand/Kan353/2004(H5N1)) infected in MDCK cells assessed as inhibition of viral entry. The series is classed as functional, organism-based.
Series [3] has as its system Influenza A virus (A/Thailand/Kan353/2004(H5N1)). Briefly: Inhibition of Influenza A virus (A/Thailand/Kan353/2004(H5N1)) neuraminidase N1 at 5 to 20 microM by fluorescence method. To be noted: dose microM 5-20.
The subject of another series is Erythrocyte. Kind of series: Inhibition of Hemagglutinin in Influenza A virus (H5N1) assessed as reduction in virus-induced agglutination of chicken erythrocytes by hemagglutination assay. In kind it is cell-based. To be noted: dose microM 5-160.
In series [4] the test system is Influenza A virus (A/Viet Nam/1203/2004(H5N1)). Kind of series: (§1) Binding affinity to Influenza A virus (A/Viet Nam/1203/2004(H5N1)) hemagglutin by surface plasmon resonance assay.
A short description of series [5]: as §1.
Series [6] relates to Influenza A virus. In kind it is functional, organism-based. The conditions noted are these: A/Duck/Guangdong/212/2004(H5N1), A549, dose 25.0 µM.
Series [7] relates to Influenza A virus. In kind it is functional, organism-based. The conditions noted are these: A/Duck/Guangdong/212/2004(H5N1), dose mg/kg 40-160, time 5.0 day.
The test system of series [8] is Vesicular stomatitis virus. Briefly: Antiviral activity against VSV-G enveloped pseudovirus infected in MDCK cells assessed as inhibition of viral entry at 1 to 100 uM. In kind it is functional, organism-based. To be noted: dose microM 1-100.
The test system of series [9] is MDCK. Kind of series: Cytotoxicity against dog MDCK cells assessed as reduction in cell viability at 0.78125 to 200 uM. The series is classed as cell-based, Canis lupus familiaris. To be noted: dose 0.78125-200 µM.
Series [10] deals with MDCK. Briefly: (§2) Cytotoxicity against dog MDCK cells assessed as reduction in cell viability. The conditions noted are these: mdck. The series is classed as cell-based, Canis lupus familiaris.
Series [11] can be described thus: as §2. In kind it is cell-based, Canis lupus familiaris. The conditions noted are these: MDCK cells.
Series [12] concerns Influenza A virus. The series is classed as functional, organism-based. To be noted: A/Duck/Guangdong/212/2004(H5N1), dose 80.0 mg/kg, time 5.0 day.

Regarding `C[C@H]1[C@H](C)CC[C@]2(C(=O)OC3CCCC3)CC[C@]3(C)C(=CC[C@@H]4[C@@]5(C)CC[C@@H](O[C@@H]6O[C@H](CO)[C@@H](O[C@@H]7O[C@@H](C)[C@H](O)[C@@H](O)[C@H]7O)[C@H](O)[C@H]6O[C@@H]6O[C@@H](C)[C@H](O)[C@@H](O)[C@H]6O)C(C)(C)[C@@H]5CC[C@]43C)[C@H]12`, in the series “in vitro”, the selectivity ratio was 12.9. In the series with Influenza A virus [1], this molecule came in with an IC50 of 40.5 µM. For the same molecule, the CC50 in [2] was 524 µM.
As to `C[C@H]1[C@H](C)CC[C@]2(C(=O)N(C)C)CC[C@]3(C)C(=CC[C@@H]4[C@@]5(C)CC[C@@H](O[C@@H]6O[C@H](CO)[C@@H](O[C@@H]7O[C@@H](C)[C@H](O)[C@@H](O)[C@H]7O)[C@H](O)[C@H]6O[C@@H]6O[C@@H](C)[C@H](O)[C@@H](O)[C@H]6O)C(C)(C)[C@@H]5CC[C@]43C)[C@H]12`, the IC50 in the series on H5N1 subtype is 6.29 µM; in the series with Influenza A virus [1], 8.42 µM. In addition, the inhibition result in [3] is “inactive”. Besides, the inhibition result in the series with Erythrocyte was “Dose-dependent effect”. Moreover, the Activity result in series [4] was “Dose-dependent effect”; with Influenza A virus [7] it was “Dose-dependent effect”; in the series on MDCK [9], “Non-Toxic”. In [5], this molecule yielded a Kd of 0.00164 µM. The outcome in the series with Influenza A virus [6] was Active. Further, the selectivity ratio in “in vitro” was over 119. Also, the outcome in series [8] was inactive. The CC50 in [2] was over 1000 µM.
As to `C[C@H]1[C@H](C)CC[C@]2(C(=O)NCc3ccccc3)CC[C@]3(C)C(=CC[C@@H]4[C@@]5(C)CC[C@@H](O[C@@H]6O[C@H](CO)[C@@H](O[C@@H]7O[C@@H](C)[C@H](O)[C@@H](O)[C@H]7O)[C@H](O)[C@H]6O[C@@H]6O[C@@H](C)[C@H](O)[C@@H](O)[C@H]6O)C(C)(C)[C@@H]5CC[C@]43C)[C@H]12`, the IC50 with Influenza A virus [1] is over 50 µM.
`COC(=O)[C@]12CC[C@@H](C)[C@H](C)[C@H]1C1=CC[C@@H]3[C@@]4(C)CC[C@@H](O[C@@H]5O[C@H](CO)[C@@H](O[C@@H]6O[C@@H](C)[C@H](O)[C@@H](O)[C@H]6O)[C@H](O)[C@H]5O[C@@H]5O[C@@H](C)[C@H](O)[C@@H](O)[C@H]5O)C(C)(C)[C@@H]4CC[C@@]3(C)[C@]1(C)CC2`: the Activity result in the series with MDCK [10] is given as “Non-Toxic”. Besides, the selectivity ratio in the series “in vitro” was 22.1. The molecule further returned an IC50 with Influenza A virus [1] of 16.4 µM. In series [2], the CC50 was determined as 363 µM.
Consider `C[C@H]1[C@H](C)CC[C@]2(C(=O)N(C)C)CC[C@]3(C)C(=CC[C@@H]4[C@@]5(C)CC[C@H](O[C@@H]6O[C@H](CO)[C@@H](O[C@@H]7O[C@@H](C)[C@H](O)[C@@H](O)[C@H]7O)[C@H](O)[C@H]6O[C@@H]6O[C@@H](C)[C@H](O)[C@@H](O)[C@H]6O)C(C)(C)[C@@H]5CC[C@]43C)[C@H]12`, for which, in series [11], the CC50 came out at 47 µM.
For `C[C@H]1[C@H](C)CC[C@]2(C(=O)Nc3ccccc3)CC[C@]3(C)C(=CC[C@@H]4[C@@]5(C)CC[C@@H](O[C@@H]6O[C@H](CO)[C@@H](O[C@@H]7O[C@@H](C)[C@H](O)[C@@H](O)[C@H]7O)[C@H](O)[C@H]6O[C@@H]6O[C@@H](C)[C@H](O)[C@@H](O)[C@H]6O)C(C)(C)[C@@H]5CC[C@]43C)[C@H]12`, in “in vitro”, the selectivity ratio is over 29.6. In the series with Influenza A virus [1], this molecule had an IC50 of 33.8 µM. The CC50 in [2] was over 1000 µM.
In the case of `CCCCCOC(=O)[C@]12CC[C@@H](C)[C@H](C)[C@H]1C1=CC[C@@H]3[C@@]4(C)CC[C@@H](O[C@@H]5O[C@H](CO)[C@@H](O[C@@H]6O[C@@H](C)[C@H](O)[C@@H](O)[C@H]6O)[C@H](O)[C@H]5O[C@@H]5O[C@@H](C)[C@H](O)[C@@H](O)[C@H]5O)C(C)(C)[C@@H]4CC[C@@]3(C)[C@]1(C)CC2`, the selectivity ratio in the series “in vitro” was 16.7. In the series with Influenza A virus [1], half-maximal inhibition (IC50) required 29.3 µM. Moreover, the CC50 in series [2] stood at 489 µM.
On to `CCOC(=O)[C@]12CC[C@@H](C)[C@H](C)[C@H]1C1=CC[C@@H]3[C@@]4(C)CC[C@@H](O[C@@H]5O[C@H](CO)[C@@H](O[C@@H]6O[C@@H](C)[C@H](O)[C@@H](O)[C@H]6O)[C@H](O)[C@H]5O[C@@H]5O[C@@H](C)[C@H](O)[C@@H](O)[C@H]5O)C(C)(C)[C@@H]4CC[C@@]3(C)[C@]1(C)CC2`, for which the selectivity ratio in “in vitro” was 20.7. In the series with Influenza A virus [1], this molecule returned an IC50 of 18.1 µM. Moreover, in series [2], the CC50 amounted to 375 µM.
For `C[C@H]1[C@H](C)CC[C@]2(C(=O)NC3CCCC3)CC[C@]3(C)C(=CC[C@@H]4[C@@]5(C)CC[C@@H](O[C@@H]6O[C@H](CO)[C@@H](O[C@@H]7O[C@@H](C)[C@H](O)[C@@H](O)[C@H]7O)[C@H](O)[C@H]6O[C@@H]6O[C@@H](C)[C@H](O)[C@@H](O)[C@H]6O)C(C)(C)[C@@H]5CC[C@]43C)[C@H]12`, in “in vitro”, the selectivity ratio was over 54.1. For the same molecule, the half-maximal inhibitory concentration (IC50) with Influenza A virus [1] was 18.5 µM. Besides, the CC50 in series [2] was over 1000 µM.
As to `NC(=O)c1ncn([C@@H]2O[C@H](CO)[C@@H](O)[C@H]2O)n1` [RIBAVIRIN], the selectivity ratio in “in vitro” came to 2.7. For the same molecule, the midpoint of inhibition in the series on Influenza A virus [1], the IC50, lay at 47.2 µM. Besides, the CC50 in series [2] was found to be 130 µM. In addition, the outcome with Influenza A virus [12] was Active.
As for `C[C@H]1[C@H](C)CC[C@]2(C(=O)O)CC[C@]3(C)C(=CC[C@@H]4[C@@]5(C)CC[C@@H](O[C@@H]6O[C@H](CO)[C@@H](O[C@@H]7O[C@@H](C)[C@H](O)[C@@H](O)[C@H]7O)[C@H](O)[C@H]6O[C@@H]6O[C@@H](C)[C@H](O)[C@@H](O)[C@H]6O)C(C)(C)[C@@H]5CC[C@]43C)[C@H]12`, the selectivity ratio in “in vitro” was 5.8. Moreover, the IC50 with Influenza A virus [1] came out at 48.7 µM. In addition, the CC50 in series [2] came out at 283 µM.
With `C[C@H]1[C@H](C)CC[C@]2(C(=O)OCc3ccccc3)CC[C@]3(C)C(=CC[C@@H]4[C@@]5(C)CC[C@@H](O[C@@H]6O[C@H](CO)[C@@H](O[C@@H]7O[C@@H](C)[C@H](O)[C@@H](O)[C@H]7O)[C@H](O)[C@H]6O[C@@H]6O[C@@H](C)[C@H](O)[C@@H](O)[C@H]6O)C(C)(C)[C@@H]5CC[C@]43C)[C@H]12`, the IC50 with Influenza A virus [1] is over 50 µM.
With `CNC(=O)[C@]12CC[C@@H](C)[C@H](C)[C@H]1C1=CC[C@@H]3[C@@]4(C)CC[C@@H](O[C@@H]5O[C@H](CO)[C@@H](O[C@@H]6O[C@@H](C)[C@H](O)[C@@H](O)[C@H]6O)[C@H](O)[C@H]5O[C@@H]5O[C@@H](C)[C@H](O)[C@@H](O)[C@H]5O)C(C)(C)[C@@H]4CC[C@@]3(C)[C@]1(C)CC2`, the selectivity ratio in “in vitro” is over 81.7. The IC50 with Influenza A virus [1] was found to be 12.2 µM. Further, the CC50 in series [2] was over 1000 µM.
